Results reported in paper PMC4546632, “Active Transport of Phosphorylated Carbohydrates Promotes Intestinal Colonization and Transmission of a Bacterial Pathogen” (PLoS Pathogens, 2015).
Where two headings read alike, the source gives them in different places.

Legend:
Details in all cases: 20 mM Tris pH 8, 100 mM NaCl
C. rodentium AfuA = target: T1, C. rodentium AfuA (Citrobacter rodentium, UniProt D2TKU7); test: isothermal titration calorimetry; type: binding
T1 construct: recombinant AfuA; construct details only in supplement
T1 sequence (D2TKU7 entry or part of it): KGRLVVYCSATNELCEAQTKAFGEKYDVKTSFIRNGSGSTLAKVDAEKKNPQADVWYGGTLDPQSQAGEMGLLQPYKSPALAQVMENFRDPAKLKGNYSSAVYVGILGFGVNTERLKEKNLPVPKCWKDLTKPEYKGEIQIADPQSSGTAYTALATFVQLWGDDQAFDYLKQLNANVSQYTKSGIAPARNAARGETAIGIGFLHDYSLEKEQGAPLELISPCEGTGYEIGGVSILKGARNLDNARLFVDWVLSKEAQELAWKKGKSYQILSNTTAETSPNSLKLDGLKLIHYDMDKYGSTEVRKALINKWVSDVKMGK
Text: isothermal titration calorimetry on C. rodentium AfuA | These amounts exceed the Kd of C. rodentium AfuA for G6P or F6P

AfuA [1] = target: T2, AfuA (Actinobacillus pleuropneumoniae, UniProt A3N294); test: isothermal titration calorimetry; type: binding
T2 construct: pET26b, periplasmic expression in E. coli (osmotic shock), N-terminal 6xHis tag cleaved by thrombin
T2 sequence (A3N294 entry or part of it): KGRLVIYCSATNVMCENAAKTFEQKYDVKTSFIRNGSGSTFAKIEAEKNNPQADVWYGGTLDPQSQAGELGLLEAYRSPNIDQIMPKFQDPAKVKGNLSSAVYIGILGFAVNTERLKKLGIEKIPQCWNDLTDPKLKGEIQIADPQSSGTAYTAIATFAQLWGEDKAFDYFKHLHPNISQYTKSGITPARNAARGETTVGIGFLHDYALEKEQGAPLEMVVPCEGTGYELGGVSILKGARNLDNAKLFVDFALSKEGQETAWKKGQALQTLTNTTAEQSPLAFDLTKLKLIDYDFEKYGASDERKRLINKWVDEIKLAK
Text: isothermal titration calorimetry on AfuA

AfuA [2] = target: AfuA (Actinobacillus pleuropneumoniae, UniProt A3N294, S64A)
Chain of AfuA (Actinobacillus pleuropneumoniae, UniProt A3N294, S64A) (A3N294 28-346 S64A): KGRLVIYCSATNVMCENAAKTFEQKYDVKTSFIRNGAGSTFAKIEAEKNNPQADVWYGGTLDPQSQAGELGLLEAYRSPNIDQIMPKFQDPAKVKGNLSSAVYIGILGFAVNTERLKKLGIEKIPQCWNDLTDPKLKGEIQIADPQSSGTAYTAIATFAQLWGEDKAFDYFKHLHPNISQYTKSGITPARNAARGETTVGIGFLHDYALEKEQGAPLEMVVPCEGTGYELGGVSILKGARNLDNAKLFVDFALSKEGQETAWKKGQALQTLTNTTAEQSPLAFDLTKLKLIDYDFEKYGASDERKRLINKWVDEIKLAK

AfuA [3] = target: AfuA (Actinobacillus pleuropneumoniae, UniProt A3N294, S64D)
Chain of AfuA (Actinobacillus pleuropneumoniae, UniProt A3N294, S64D) (A3N294 28-346 S64D): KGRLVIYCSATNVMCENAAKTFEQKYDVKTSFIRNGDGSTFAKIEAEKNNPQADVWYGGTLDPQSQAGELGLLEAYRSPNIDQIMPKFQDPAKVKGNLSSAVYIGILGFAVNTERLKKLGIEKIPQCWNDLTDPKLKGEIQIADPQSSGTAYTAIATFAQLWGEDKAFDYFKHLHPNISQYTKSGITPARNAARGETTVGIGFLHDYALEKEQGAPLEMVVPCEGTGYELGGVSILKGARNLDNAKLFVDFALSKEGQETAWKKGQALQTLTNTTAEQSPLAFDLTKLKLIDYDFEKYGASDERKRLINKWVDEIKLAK

AfuA [4] = target: AfuA (Actinobacillus pleuropneumoniae, UniProt A3N294, T177A)
Chain of AfuA (Actinobacillus pleuropneumoniae, UniProt A3N294, T177A) (A3N294 28-346 T177A): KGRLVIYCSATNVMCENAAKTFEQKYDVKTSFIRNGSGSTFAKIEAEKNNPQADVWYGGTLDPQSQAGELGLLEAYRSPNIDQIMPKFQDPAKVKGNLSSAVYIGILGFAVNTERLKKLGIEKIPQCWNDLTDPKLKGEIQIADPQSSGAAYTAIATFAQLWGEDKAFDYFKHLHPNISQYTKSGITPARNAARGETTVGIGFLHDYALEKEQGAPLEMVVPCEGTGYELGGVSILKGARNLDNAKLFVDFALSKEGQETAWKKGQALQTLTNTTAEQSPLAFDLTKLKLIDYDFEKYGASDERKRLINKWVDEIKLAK

O=P(O)(O)OC[C@H]1OC(O)[C@H](O)[C@@H](O)[C@@H]1O (some centres unmarked) [Glucose-6-phosphate]
Kd (C. rodentium AfuA): 164 ± 94 nM | Kd (AfuA [1]; read-out: Kd): 23 ± 4 nM | Kd (AfuA [2]): 900 ± 100 nM | Kd (AfuA [3]): 5500 ± 900 nM | Kd (AfuA [4]): 3300 ± 200 nM

O=P(O)(O)OC[C@H]1OC(O)(CO)[C@@H](O)[C@@H]1O (some centres unmarked) [Fructose-6-phosphate]
Kd (AfuA [1]; read-out: Kd): 8 ± 1 nM

O=P(O)(O)OC[C@@H](O)[C@H]1OC(O)(CO)[C@@H](O)[C@@H]1O (some centres unmarked) [Sedoheptulose-7-phosphate]
Kd (AfuA [1]): 57 ± 22 nM

O=P(O)(O)OC[C@H]1OC(O)[C@@H](O)[C@@H](O)[C@@H]1O (some centres unmarked) [Mannose-6-phosphate]
Kd (AfuA [1]; read-out: Kd): 960 ± 150 nM
